Laboratory results: BindingDB's records for doi:10.1002/cbic.200800712 (University of Basel, 2009)
“And” between values parts separate entries of the source, which are not always exact repeats. Identical values can stand only once.

Tests used:
Cytochrome P450 2A13 = target: T1, Cytochrome P450 2A13 (Homo sapiens, UniProt Q16696); experiment: Inhibition Assay; settings: pH 7.6; 37 °C
T1 sequence (Q16696 whole entry): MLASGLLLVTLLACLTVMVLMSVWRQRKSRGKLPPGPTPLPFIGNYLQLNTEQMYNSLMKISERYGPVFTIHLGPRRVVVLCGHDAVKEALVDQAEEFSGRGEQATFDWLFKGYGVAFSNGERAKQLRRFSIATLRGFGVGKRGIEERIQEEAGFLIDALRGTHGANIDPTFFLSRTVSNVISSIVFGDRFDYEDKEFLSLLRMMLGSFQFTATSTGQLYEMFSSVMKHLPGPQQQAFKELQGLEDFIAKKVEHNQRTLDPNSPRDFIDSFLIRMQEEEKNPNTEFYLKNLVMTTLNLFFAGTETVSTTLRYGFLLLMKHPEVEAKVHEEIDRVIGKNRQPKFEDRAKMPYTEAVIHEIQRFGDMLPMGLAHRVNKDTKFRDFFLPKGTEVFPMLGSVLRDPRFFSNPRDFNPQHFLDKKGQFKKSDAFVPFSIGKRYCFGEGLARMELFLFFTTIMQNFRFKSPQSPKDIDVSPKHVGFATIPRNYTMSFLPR
Source text: (§1) Inhibition assay using cytochrome P450 enzyme CYP2A6 and CYP2A13.

Cytochrome P450 2A6 = target: T2, Cytochrome P450 2A6 (Homo sapiens, UniProt P11509); experiment: Inhibition Assay; settings: pH 7.6; 37 °C
T2 sequence (P11509 whole entry): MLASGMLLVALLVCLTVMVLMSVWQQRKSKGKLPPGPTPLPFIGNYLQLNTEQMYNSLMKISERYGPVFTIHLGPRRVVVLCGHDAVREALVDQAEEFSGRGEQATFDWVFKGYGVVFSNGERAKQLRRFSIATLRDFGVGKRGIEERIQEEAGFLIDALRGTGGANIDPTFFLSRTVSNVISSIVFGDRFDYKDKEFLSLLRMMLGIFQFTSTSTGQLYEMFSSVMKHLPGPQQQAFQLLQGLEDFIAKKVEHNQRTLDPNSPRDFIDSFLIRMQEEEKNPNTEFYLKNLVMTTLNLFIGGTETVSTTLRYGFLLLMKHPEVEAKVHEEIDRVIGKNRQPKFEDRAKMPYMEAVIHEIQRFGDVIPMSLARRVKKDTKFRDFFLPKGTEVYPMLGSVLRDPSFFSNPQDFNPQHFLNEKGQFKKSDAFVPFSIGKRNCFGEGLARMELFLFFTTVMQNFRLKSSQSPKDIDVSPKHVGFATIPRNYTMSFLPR
Source text: as §1

Row | Compound | IC50 (Cytochrome P450 2A13) [µM] | IC50 (Cytochrome P450 2A6)
1 | OCCCCCn1ccnc1 [1-Subsituted 1H-imidazole, 20] | > 300 | 122 µM
2 | C=Cn1ccnc1 [1-ethenyl-1H-imidazole] | > 300 | > 300 µM
3 | CC#CCn1ccnc1 [1-Subsituted 1H-imidazole, 15] | 235 | 64 µM
4 | OCCCCn1ccnc1 [1-Subsituted 1H-imidazole, 19] | > 300 | > 300 µM
5 | CCCCCCCn1ccnc1 [1-Subsituted 1H-imidazole, 5] | 3.1 | 11 µM
6 | CC/C=C/CCn1ccnc1 [1-Subsituted 1H-imidazole, 12] | 5.5 | 7.1 µM and 11.5 µM
7 | CCCCCCn1ccnc1 [1-Subsituted 1H-imidazole, 4] |  | 2.7 µM
8 | CC/C=C/Cn1ccnc1 [1-Subsituted 1H-imidazole, 10] | 11.4 | 6.7 µM
9 | COc1ccc(-c2ncco2)cc1 [2-Subsituted oxazole, 29] | 49 | 302 µM
10 | CCOC(=O)CCn1ccnc1 [1-Subsituted 1H-imidazole, 17] | 238 | > 300 µM
11 | CCOC(=O)CCCn1ccnc1 [1-Subsituted 1H-imidazole, 18] | 123 | > 300 µM
12 | CC(C)=CCn1ccnc1 [1-Subsituted 1H-imidazole, 9] |  | 7.7 µM
13 | CC/C=C/Cc1ncc[nH]1 [2-Subsituted 1H-imidazole, 28] | 143 | > 300 µM
14 | CCCCCCCCCc1ncc[nH]1 [2-Subsituted 1H-imidazole, 27] | 277 | > 300 µM
15 | O=C(O)CCCCn1ccnc1 | 82 | 178 µM
16 | CC(C)=CCC/C(C)=C\Cn1ccnc1 [1-Subsituted 1H-imidazole, 14] | 5.7 | 5.7 µM
17 | C=CCCCCn1ccnc1 [1-Subsituted 1H-imidazole, 13] | 2.4 | 1.4 µM
18 | CCCn1ccnc1 [1-Subsituted 1H-imidazole, 1] | > 300 | > 300 µM
19 | CCCCCCCCCc1ncco1 [2-Subsituted oxazole, 30] | > 300 | > 300 µM
20 | c1cn(CC2CC2)cn1 | 148 | 54 µM
21 | N#CCCCCn1ccnc1 [1-Subsituted 1H-imidazole, 22] | 19.1 | 22.4 µM
22 | CC(C)=CCCC(C)Cc1ncc[nH]1 (centres undefined) [2-Subsituted 1H-imidazole, 26] | 247 | > 300 µM
23 | CCCCn1ccnc1 [1-Subsituted 1H-imidazole, 2] | 44 | 8.6 µM
24 | CCCCCn1ccnc1 [1-Subsituted 1H-imidazole, 3] | 4.3 | 2.1 µM
25 | CC(C)CCn1ccnc1 [1-Subsituted 1H-imidazole, 7] |  | 3.1 µM
26 | COc1ccc(C2=NCCO2)cc1 [2-Subsituted oxazoline, 31] | > 300 | > 300 µM
